Measurements: patent US20050164370A1 (priority 2003, published 2005)

What was measured:
[1] = test system: transformed cells TM182-AHK2-ADHIPT4; details: TM182-AHK2-ADHIPT4, DOHLU+Glu agar containing 10 μM trans-zeatin, 30° C. for 30 hours
Protocol: (§1) After incubation, the growth state of the transformed cells was observed and photographed by a digital camera.

[2] = test system: transformed cells TM182-AHK2-CYC1IPT4; details: TM182-AHK2-CYC1IPT4, DOHLU+Glu agar containing 10 μM trans-zeatin, 30° C. for 30 hours
Protocol: as §1

[3] = test system: transformed cells TM182-AHK2-CYC1IPT5; details: TM182-AHK2-CYC1IPT5, DOHLU+Glu agar containing 10 μM trans-zeatin, 30° C. for 30 hours
Protocol: as §1

[4] = test system: transformed cells TM182-CYC1-ADHIPT5; details: TM182-CYC1-ADHIPT5, DOHLU+Glu agar containing 10 μM trans-zeatin, 30° C. for 30 hours
Protocol: as §1

[5] = test system: transformed cells TM182-CRE1-CYC1IPT4; details: TM182-CRE1-CYC1IPT4, DOHLU+Glu agar containing 10 μM trans-zeatin, 30° C. for 30 hours
Protocol: as §1

[6] = molecular target: T1, cytokinin receptor AHK3 (Arabidopsis thaliana, UniProt Q9C5U1); details: TM182-AHK3, DOLU+Glu agar, 10 μM, 30° C. for 30 hours
T1 sequence (Q9C5U1 1-1036): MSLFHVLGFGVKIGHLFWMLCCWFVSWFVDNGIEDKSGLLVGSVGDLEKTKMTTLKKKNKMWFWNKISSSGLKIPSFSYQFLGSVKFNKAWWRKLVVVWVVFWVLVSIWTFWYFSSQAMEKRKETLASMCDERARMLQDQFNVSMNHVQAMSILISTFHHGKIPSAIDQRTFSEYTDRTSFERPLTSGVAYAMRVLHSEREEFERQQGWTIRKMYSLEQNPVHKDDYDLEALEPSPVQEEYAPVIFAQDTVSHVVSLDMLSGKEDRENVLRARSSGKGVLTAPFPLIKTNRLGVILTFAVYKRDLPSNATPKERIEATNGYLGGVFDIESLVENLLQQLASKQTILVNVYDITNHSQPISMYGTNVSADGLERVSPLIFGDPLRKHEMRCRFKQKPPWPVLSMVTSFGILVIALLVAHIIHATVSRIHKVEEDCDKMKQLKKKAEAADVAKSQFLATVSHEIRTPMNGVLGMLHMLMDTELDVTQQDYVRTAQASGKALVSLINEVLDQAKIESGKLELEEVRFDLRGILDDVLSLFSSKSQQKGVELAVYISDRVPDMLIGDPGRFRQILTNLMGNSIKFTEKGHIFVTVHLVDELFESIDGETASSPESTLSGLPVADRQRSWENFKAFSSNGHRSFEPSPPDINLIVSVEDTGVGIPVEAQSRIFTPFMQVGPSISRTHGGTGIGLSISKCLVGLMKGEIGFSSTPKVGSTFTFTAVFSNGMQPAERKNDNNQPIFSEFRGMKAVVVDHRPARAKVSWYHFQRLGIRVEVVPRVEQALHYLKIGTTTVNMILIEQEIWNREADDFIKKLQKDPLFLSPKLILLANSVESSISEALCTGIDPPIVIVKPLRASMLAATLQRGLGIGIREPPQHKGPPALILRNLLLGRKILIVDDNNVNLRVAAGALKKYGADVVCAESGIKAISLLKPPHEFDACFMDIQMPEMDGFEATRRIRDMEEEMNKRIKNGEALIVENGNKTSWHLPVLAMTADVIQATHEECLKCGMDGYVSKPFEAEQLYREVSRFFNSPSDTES
Protocol: A culture solution 10 μl (about 800 clones of yeast) of the transformed cells TM182-CRE1, TM182-AHK2, TM182-AHK2Δ and TM182-AHK3 produced by the example 12 was spotted on DOLU+Glu agar media containing 10 μM of trans-zeatin and cultured at 30° C. for 30 hours. After incubation, the growth state of the transformed cells was observed and photographed by a digital camera.

## C/C(=C\CNc1ncnc2nc[nH]c12)CO [trans-zeatin]
[1]
  growth state of the transformed cells: observed to grow
[2]
  growth state of the transformed cells: observed to grow
[3]
  growth state of the transformed cells: observed to grow
[4]
  growth state of the transformed cells: not observed to grow
[5]
  growth state of the transformed cells: observed to grow
[6]
  growth state of the transformed cells as compared with media containing no trans-zeatin: high growth
